The values below come from ChEMBL document CHEMBL5360577, “Multicomponent Petasis reaction for the identification of pyrazine based multi-target directed anti-Alzheimer's agents: In-silico design, synthesis, and characterization” (Eur J Med Chem, 2023).

Active and inactive are the calls of the source. No cut-off for these calls is given here.

Test [1] deals with Amyloid-beta precursor protein (Homo sapiens) (UniProt P05067). The test is described as follows: Inhibition of amyloid beta (unknown origin) aggregation at 10 uM relative to control.
Sequence of Amyloid-beta precursor protein (Homo sapiens) (P05067 whole entry): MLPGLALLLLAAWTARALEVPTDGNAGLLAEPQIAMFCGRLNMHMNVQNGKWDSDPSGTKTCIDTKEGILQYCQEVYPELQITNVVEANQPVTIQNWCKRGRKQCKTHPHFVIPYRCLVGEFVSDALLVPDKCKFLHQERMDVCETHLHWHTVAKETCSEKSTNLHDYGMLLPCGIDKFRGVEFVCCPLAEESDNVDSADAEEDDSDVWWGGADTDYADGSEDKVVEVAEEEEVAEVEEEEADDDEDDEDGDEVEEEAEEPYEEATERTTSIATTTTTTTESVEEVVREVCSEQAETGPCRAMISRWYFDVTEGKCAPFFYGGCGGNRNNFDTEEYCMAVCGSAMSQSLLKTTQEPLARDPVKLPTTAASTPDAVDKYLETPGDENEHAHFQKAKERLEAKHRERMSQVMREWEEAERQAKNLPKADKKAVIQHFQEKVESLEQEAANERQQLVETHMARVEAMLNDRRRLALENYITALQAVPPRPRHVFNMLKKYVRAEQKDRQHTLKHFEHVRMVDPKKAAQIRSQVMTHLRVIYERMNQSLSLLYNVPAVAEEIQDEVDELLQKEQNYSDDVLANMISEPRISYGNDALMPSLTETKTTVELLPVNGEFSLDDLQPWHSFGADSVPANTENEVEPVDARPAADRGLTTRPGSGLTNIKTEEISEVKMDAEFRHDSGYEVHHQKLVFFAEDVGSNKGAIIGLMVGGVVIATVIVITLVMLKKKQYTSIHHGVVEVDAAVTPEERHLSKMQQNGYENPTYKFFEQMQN
Test [2] has as its target T1, Microtubule-associated protein tau (Homo sapiens, UniProt P10636). The test is described as follows: Inhibition of tau (unknown origin) aggregation at 10 uM relative to control.
The target of the next test is Cholinesterase (Homo sapiens, UniProt P06276). The test is described as follows: Inhibition of human BuChE by Ellman's method.
Sequence of Cholinesterase (P06276 whole entry): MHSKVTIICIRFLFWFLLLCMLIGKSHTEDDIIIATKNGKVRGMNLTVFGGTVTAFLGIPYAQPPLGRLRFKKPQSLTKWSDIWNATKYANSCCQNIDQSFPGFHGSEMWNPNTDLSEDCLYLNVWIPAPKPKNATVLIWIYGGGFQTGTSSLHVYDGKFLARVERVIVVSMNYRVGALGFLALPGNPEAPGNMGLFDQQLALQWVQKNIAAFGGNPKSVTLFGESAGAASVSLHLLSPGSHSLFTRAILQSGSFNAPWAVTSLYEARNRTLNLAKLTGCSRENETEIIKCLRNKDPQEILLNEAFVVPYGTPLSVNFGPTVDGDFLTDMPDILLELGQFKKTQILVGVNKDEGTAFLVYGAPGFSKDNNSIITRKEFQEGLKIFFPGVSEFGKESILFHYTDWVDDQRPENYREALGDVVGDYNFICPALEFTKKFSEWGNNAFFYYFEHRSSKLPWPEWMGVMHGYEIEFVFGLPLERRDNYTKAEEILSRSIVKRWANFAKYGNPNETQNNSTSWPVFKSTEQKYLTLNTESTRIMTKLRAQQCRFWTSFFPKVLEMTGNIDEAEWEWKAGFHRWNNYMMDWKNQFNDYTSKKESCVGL
In test [3] the target is T2, Acetylcholinesterase (Homo sapiens, UniProt P22303). The test is described as follows: Inhibition of human AChE by Ellman's method.
T2 sequence (P22303 whole entry): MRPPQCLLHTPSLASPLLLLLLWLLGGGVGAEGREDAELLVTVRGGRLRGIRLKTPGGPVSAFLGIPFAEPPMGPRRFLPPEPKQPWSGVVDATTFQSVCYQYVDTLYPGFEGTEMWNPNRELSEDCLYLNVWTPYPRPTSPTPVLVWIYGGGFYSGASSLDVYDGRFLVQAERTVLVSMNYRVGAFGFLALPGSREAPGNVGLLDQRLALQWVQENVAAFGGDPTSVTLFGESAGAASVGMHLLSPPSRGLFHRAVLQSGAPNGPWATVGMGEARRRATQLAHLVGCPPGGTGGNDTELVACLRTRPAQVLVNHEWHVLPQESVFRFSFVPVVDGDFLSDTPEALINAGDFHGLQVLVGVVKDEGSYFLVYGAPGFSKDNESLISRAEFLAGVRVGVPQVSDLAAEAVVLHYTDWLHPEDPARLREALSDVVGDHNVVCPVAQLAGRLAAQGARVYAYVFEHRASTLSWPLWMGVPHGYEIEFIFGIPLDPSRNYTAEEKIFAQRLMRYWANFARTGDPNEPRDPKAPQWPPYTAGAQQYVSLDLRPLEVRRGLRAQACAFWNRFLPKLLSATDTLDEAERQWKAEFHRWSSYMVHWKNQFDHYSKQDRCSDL
The target in test [4] is T3, Amine oxidase [flavin-containing] B (Homo sapiens, UniProt P27338).
T3 sequence (P27338 whole entry): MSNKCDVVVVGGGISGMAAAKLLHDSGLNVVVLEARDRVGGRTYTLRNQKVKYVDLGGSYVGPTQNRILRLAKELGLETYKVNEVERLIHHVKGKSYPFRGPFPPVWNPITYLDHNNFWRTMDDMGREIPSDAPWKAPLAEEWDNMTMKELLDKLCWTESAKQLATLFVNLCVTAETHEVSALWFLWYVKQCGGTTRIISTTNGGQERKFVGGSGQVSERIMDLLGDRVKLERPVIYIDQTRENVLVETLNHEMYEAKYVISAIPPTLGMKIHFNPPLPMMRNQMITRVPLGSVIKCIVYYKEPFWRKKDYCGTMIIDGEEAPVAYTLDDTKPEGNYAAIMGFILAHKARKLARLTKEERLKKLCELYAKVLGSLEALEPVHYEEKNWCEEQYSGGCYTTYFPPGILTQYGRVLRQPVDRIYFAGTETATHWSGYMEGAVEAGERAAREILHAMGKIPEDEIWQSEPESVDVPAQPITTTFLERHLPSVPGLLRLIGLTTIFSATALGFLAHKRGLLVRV
The test is described as follows: Inhibition of human MAO-B by fluorometric assay.

Test [5] has as its target T2, Acetylcholinesterase. The test is described as follows: Inhibition of human AChE using acetylthiocholine as substrate at 10 uM by Ellman's method. For orientation: In Ellman's method for cholinesterases, released thiocholine reacts with DTNB.
Test [6] concerns the target T2, Acetylcholinesterase. Put plainly: Inhibition of human AChE using acetylthiocholine as substrate by Ellman's method.
The target of test [7] is T1, Microtubule-associated protein tau. Put plainly: Inhibition of cellular tau (unknown origin) aggregation at 10 uM incubated for 2 hrs by FRET assay.
For test [8] the target is unchanged. The test is described as follows: Inhibition of cellular tau (unknown origin) aggregation incubated for 2 hrs by FRET assay.
Another test relates to SH-SY5Y. Put plainly: Neuroprotective activity in human SH-SY5Y cell model transfected with wild-type tau assessed as cell viability at 1 to 10 uM by MTT assay. It counts as functional, cell-based. The settings on record: dose 1-10 µM. Background: Tetrazolium assays rely on reduction of a dye to a coloured formazan, in cell work by metabolically active cells.
Test [9] addresses T2, Acetylcholinesterase. The test is described as follows: Inhibition of human AChE using acetylthiocholine as substrate at 10 uM by Ellman's method relative to control.

T1 sequence (P10636 whole entry): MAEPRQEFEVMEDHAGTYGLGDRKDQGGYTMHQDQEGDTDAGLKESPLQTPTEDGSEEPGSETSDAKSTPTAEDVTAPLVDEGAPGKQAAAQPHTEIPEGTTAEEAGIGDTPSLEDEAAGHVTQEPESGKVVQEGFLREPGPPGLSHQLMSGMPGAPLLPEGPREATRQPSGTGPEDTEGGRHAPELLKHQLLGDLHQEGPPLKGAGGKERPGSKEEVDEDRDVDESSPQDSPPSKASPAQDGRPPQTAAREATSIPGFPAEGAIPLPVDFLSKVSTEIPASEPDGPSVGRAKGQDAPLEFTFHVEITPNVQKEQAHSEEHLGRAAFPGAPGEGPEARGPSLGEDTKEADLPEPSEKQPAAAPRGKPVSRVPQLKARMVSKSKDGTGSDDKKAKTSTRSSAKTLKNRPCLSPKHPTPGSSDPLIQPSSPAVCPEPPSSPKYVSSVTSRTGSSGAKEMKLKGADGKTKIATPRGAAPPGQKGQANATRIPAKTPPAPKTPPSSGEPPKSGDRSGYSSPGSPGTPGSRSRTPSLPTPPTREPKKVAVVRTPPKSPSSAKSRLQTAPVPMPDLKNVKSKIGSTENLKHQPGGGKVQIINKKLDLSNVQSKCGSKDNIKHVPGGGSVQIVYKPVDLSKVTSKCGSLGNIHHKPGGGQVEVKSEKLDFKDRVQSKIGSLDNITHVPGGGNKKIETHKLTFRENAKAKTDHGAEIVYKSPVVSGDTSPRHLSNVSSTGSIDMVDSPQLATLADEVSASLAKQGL

Consider `OC(CNCCC(c1ccccc1)c1ccccc1)CNCc1ccccc1` (configuration not stated), for which the inhibition (as a rule, how much of the control response was suppressed) was found to be 80% in test [1] and 68% in test [2].
Take `Cc1cc(C)c(C(=O)/C=C/c2nc(C)c(C)nc2C)cc1C`: the IC50 (commonly the point on the concentration scale where inhibition reaches its midpoint) on Cholinesterase was 37600 nM; at Acetylcholinesterase [3] it was 2400 nM; in [4], 11200 nM.
Regarding `COc1cccc(C(c2ccc(F)cc2)N2CCN(c3cnccn3)CC2)c1O` (configuration not stated), the inhibition result (on Acetylcholinesterase [5]; in test [7]) was “Active” each time. At Acetylcholinesterase [6], this molecule returned a half-maximal inhibitory concentration (IC50) of 710 nM. Also, it took 2210 nM to reach a half-maximal effect in test [8] (EC50). In addition, the result in the test on SH-SY5Y was Active.
For `Oc1ccccc1C(c1ccc(C(F)(F)F)cc1)N1CCN(c2cnccn2)CC1` (configuration not stated), at Acetylcholinesterase [5], the inhibition result was “Active”. Further, on Acetylcholinesterase [9], the inhibition is under 40%.
For `Cc1ccc(C(c2ccccc2O)N2CCN(c3cnccn3)CC2)cc1` (configuration not stated), the inhibition entry (at Acetylcholinesterase [5]; in test [7]) was “Active” throughout. Half-maximal inhibition on Acetylcholinesterase [6] (IC50) required 1090 nM. The EC50 (commonly the concentration giving half of the maximal effect) in test [8] worked out at 2710 nM. Further, the result with SH-SY5Y was Active.
